Reference: patent EP0942911B1, “BENZOPYRANOPYRROLE AND BENZOPYRANOPYRIDINE ALPHA-1 ADRENERGIC COMPOUNDS” (Abbott Laboratories, priority 1996, dated 1998)
Counter-ions that a name gives are not always drawn. Like-named read-outs stand apart in the source and are kept apart here.

Key:
Assay in all cases: biochemical
α-1b adrenoreceptor = biological target: T1, α-1b adrenoreceptor (Mesocricetus auratus, UniProt P18841); format: binding, hamster; conditions: read-out: Radioligand Binding (Ki, nM) 1b (Hamster)
T1 sequence (P18841 1-515): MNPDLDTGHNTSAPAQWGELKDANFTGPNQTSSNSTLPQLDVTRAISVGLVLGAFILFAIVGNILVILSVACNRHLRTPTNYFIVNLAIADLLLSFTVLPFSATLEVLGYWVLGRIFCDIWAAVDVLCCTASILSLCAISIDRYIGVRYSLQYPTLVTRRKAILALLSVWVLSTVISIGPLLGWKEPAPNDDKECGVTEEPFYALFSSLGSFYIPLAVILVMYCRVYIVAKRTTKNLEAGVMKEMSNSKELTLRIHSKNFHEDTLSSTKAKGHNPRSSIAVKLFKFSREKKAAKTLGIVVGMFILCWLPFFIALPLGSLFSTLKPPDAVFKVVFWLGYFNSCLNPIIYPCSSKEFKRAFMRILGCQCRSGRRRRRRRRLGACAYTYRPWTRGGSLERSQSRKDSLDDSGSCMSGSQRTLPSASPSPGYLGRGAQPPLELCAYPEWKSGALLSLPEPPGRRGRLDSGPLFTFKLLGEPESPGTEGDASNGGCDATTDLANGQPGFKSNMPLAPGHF
Excerpt: (§1) The cDNA clones encoding the α-1 adrenoreceptors (α-1a, α-1b, and α-1d) were obtained from TULCO (Triangle Universities Licensing Consortium, Research Triangle Park, NC) and inserted into the eukaryotic expression vector SnaB30. In this vector, expression of the adrenoreceptor gene is under the transcriptional control of an SV40 early promoter. Positive drug selection is provided by a neomycin-resistance gene. Mouse fibroblast cells (LTK) were transfected with the α1 expression plasmids and grown in Dulbecco's modified Eagle's medium (DMEM) containing 10% fetal calf serum and 30 µM G418. Stable G418-resistant parental lines were generated, with successful expression of adrenoreceptor protein monitored using radioligand binding techniques. Stable single cell clones derived from the parental lines were screened in adrenoreceptor binding assays to identify clones having high adrenoreceptor density. Roller bottle cultures of the cloned lines were used to provide cell membranes for subsequent adrenoreceptor binding characterization studies. A cell line containing the SnaB30 vector expressing the human erythropoietin gene served as a negative control.
(§2) For adrenoreceptor binding assays, large scale membrane preparations were utilized in which 6 million cells were seeded into small (450 cm^2) Corning tissue culture roller bottles. 200 mL of DMEM containing 10% fetal calf serum and 300 µM G418 were added to each roller bottle. A 95% air / 5% CO2 gas mixture (sterile) was injected into each roller bottle prior to sealing. The bottles were then incubated at 37 °C on a roller rack for 5 days. Cells were re-fed with fresh medium after 3 days in culture.
(§3) On the fifth day of culture, growth medium was removed from cells grown in roller bottles, and the cells were washed twice with PBS (Sigma, 120 mM NaCl, 2.7 mM KCl, 10 mM Na2HPO4-NaH2PO4, pH = 7.4). Cells were detached from the roller bottles by incubating for 15 minutes at 37 °C in a Tris-EDTA solution (10 mM Tris, 100 mM NaCl, 1 mM EDTA, pH = 7.4). The cell suspension from each roller bottle was decanted into tared centrifuge tubes and kept on ice. An aliquot of each cell suspension was generally taken for cell counting. Cells were centrifuged at 3000 X G for 5 min at 2-4 °C, washed with PBS and recentrifuged. The supernatant was decanted and the pellet weighed to determine the wet weight of cells. Cells were washed a final time in 40 vol 5 mM Tris-HCl, 5 mM EDTA, pH = 7.7, and centrifuged at 40,000 X G for 10 minutes. Cells were homogenized in 10 mL of 50 mM Tris-HCl, 5 mM EDTA (pH = 7.4) and diluted to 40 mL/tube. Homogenates were centrifuged at 40,000 X G for 10 minutes. The supernatant was decanted and the pellets rehomogenized in 50 mM Tris-HCl (pH = 7.4) and centrifuged as before. The supernatant was decanted and the homogenate resuspended in 6.25 volumes (per gram wet weight) of 50 mM Tris-HCl and aliquots of the pooled homogenates frozen in liquid N2 and stored at -70 °C until the time of assay. Rat submaxillary glands were used for α-1A adrenoreceptors and were prepared essentially as described (Michel, A. D., Loury, D. N. and Whiting, R. L., Brit. J. Pharmacol. 98: 83-889 (1989)).
(§4) Receptor binding assays for α-1 adrenoreceptors were performed essentially as described by Greengrass and Bremner (Eur. J. Pharmacol. 55: 323-326 (1979)). […] Radioactivity was determined by standard liquid scintillation techniques. Data were analyzed as previously described (Hancock, A. A., Kyncl, J. J., Martin, Y. C. and DeBernardis, J. F., J. Receptor Res. 8: 23-46 (1988)).

[1] = biological target: T2, α-1A adrenoreceptor (rat submaxillary gland) (Rattus norvegicus, UniProt P43140); format: binding; conditions: read-out: Radioligand Binding (Ki, nM) 1A (Rat)
T2 sequence (P43140 1-466): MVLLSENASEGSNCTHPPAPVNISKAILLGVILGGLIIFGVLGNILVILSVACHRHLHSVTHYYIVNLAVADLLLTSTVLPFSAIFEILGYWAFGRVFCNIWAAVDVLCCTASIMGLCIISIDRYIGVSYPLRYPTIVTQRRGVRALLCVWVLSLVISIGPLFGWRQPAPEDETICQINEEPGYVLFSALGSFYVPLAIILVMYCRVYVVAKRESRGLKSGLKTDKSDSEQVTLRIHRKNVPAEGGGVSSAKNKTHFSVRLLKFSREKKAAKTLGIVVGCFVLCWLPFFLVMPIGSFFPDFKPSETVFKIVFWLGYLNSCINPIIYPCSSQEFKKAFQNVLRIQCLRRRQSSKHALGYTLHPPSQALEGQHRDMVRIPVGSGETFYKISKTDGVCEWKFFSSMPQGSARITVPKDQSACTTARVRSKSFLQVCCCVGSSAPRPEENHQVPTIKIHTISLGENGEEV
Experimental: Additionally, binding affinity against the pharrnacologically defined α-1A adrenoreceptor (rat submaxillary gland) was measured.
as §3, §4

α-1d adrenoreceptor = biological target: T3, α-1d adrenoreceptor (Rattus norvegicus, UniProt P23944); format: binding; conditions: read-out: Radioligand Binding (Ki, nM) 1d (Rat)
T3 sequence (P23944 1-561): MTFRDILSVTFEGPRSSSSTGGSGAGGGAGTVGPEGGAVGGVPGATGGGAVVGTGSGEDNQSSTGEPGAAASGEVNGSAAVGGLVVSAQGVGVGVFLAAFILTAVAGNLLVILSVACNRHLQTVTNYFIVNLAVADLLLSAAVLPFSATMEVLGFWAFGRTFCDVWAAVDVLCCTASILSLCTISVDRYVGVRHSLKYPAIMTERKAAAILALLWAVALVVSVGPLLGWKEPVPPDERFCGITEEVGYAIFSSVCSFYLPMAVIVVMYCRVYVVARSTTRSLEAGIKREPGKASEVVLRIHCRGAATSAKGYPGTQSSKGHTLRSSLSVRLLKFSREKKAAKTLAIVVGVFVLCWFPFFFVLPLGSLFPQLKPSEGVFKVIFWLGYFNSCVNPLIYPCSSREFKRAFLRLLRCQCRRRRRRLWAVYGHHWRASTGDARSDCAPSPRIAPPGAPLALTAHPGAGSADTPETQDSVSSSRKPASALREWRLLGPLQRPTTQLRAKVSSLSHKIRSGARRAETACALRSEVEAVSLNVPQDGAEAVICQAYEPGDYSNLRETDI
Excerpt: as §1, §2, §3, §4

α-1a adrenoreceptor = biological target: T4, α-1a adrenoreceptor (Bos taurus, UniProt P18130); format: binding, bovine; conditions: read-out: Radioligand Binding (Ki, nM) 1a (Bovine)
T4 sequence (P18130 1-466): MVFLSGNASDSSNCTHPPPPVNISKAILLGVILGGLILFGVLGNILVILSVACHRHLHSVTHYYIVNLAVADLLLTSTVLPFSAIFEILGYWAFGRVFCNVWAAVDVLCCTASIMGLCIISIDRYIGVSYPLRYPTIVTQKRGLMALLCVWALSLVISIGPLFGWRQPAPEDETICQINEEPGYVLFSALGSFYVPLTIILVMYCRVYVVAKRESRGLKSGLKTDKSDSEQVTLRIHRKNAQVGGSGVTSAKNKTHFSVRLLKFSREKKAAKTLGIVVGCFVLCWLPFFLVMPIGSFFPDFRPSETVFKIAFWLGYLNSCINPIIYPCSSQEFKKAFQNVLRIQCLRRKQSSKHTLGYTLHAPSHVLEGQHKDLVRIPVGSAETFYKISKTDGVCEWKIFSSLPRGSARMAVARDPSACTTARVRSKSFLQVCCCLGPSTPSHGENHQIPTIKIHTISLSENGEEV
Excerpt: as §1, §2, §3, §4

[2] = [3H]-prazosin radioligand, cloned receptor in LTK cell membranes

Molecule | Ki (α-1b adrenoreceptor; [2]) | Ki ([1]; [3H]-prazosin radioligand, rat submaxillary gland membranes) | Ki (α-1d adrenoreceptor; [2]) | Ki (α-1a adrenoreceptor; [2]) | Ki (α-1b adrenoreceptor) | Ki [1] | Ki (α-1d adrenoreceptor) | Ki (α-1a adrenoreceptor)
3-[2-((±)-trans-10-Methoxy-1,3,4,4a,5,10b-hexahydro-2H-[1]-benzopyrano[3,4-c]pyrido-3-yl)ethyl]-6,7-dimethoxy-quinazoline-2,4(1H,3H)-dione hydrochloride [Example 91] | 1.46 nM | 0.102 nM | 0.495 nM | 0.066 nM | – | – | – | –
O=c1[nH]c2c(sc3cccnc32)c(=O)n1CCCCN1C[C@@H]2COc3ccccc3[C@H]2C1 (racemic) [Example 71, 3-[4-((±)-trans-1,2,3,3a,4,9b-hexahydro-[1]-benzopyrano[3,4-c]pyrrol-2-yl)butyl]-pyrido[2',3':4,5]thieno[3,2-d]pyrimidine-2,4(1H,3H)-dione hydrochloride] | – | – | – | – | 0.634 nM | 0.065 nM | 0.169 nM | 0.068 nM
COc1cccc2c1[C@H]1CN(CCCCn3c(=O)[nH]c4c(sc5cccnc54)c3=O)C[C@@H]1CO2 (racemic) [Example 72, 3-[4-((±)-trans-9-Methoxy-1,2,3,3a,4,9b-hexahydro-[1]-benzopyrano[3,4-c]pyrrol-2-yl)butyl]-pyrido[2',3':4,5]thieno[3,2-d]pyrimidine-2,4(1H,3H)-dione dihydrochloride] | – | – | – | – | 3.54 nM | 0.107 nM | 0.804 nM | 0.133 nM
COc1cccc2c1[C@@H]1CN(CCCCn3c(=O)[nH]c4c(sc5cccnc54)c3=O)C[C@@H]1CO2 (racemic) [Example 73, 3-[4-((±)-cis-9-Methoxy-1,2,3,3a,4,9b-hexahydro-[1]-benzopyrano[3,4-c]pyrrol-2-yl)butyl]-pyrido[2',3':4,5]thieno[3,2-d]pyrimidine-2,4[1H,3H)-dione dihydrochloride] | – | – | – | – | 1.31 nM | 0.087 nM | 0.187 nM | 0.038 nM
COc1ccc2c(c1)[C@@H]1CN(CCCCn3c(=O)[nH]c4c(sc5ncccc54)c3=O)C[C@@H]1CO2 (racemic) [Example 75, 3-[4-((±)-cis-8-Methoxy-1,2,3,3a,4,9b-hexahydro-[1]-benzopyrano[3,4-c]pyrrol-2-yl)butyl]-pyrido[3',2':4,5]thieno[3,2-d]pyrimidine-2,4(1H,3H)-dione dihydrochloride] | – | – | – | – | 52.1 nM | 5.73 nM | 18.3 nM | 1.89 nM
COc1ccc2c(c1)[C@@H]1CN(CCCCn3c(=O)[nH]c4c(sc5nccnc54)c3=O)C[C@@H]1CO2 (racemic) [Example 76, 3-[4-((±)-cis-8-Methoxy-1,2,3,3a,4,9b-hexahydro-[1]-benzopyrano[3,4-c]pyrrol-2-yl)butyl]-pyrazino[2',3':4,5]thieno[3,2-d]pyrimidine-2,4(1H,3H)-dione hydrochloride] | – | – | – | – | 78.6 nM | 11.7 nM | 12.9 nM | 6.21 nM
COc1ccc2c(c1)[C@@H]1CN(CCCn3c(=O)[nH]c4c(sc5ncccc54)c3=O)C[C@@H]1CO2 (racemic) [Example 77, 3-[3-((±)-cis-8-Methoxy-1,2,3,3a,4,9b-hexahydro-[1]-benzopyrano[3,4-c]pyrrol-2-yl)propyl]-pyrido[3',2':4,5]thieno[3,2-d]pyrimidine-2,4(1H,3H)-dione hydrochloride] | – | – | – | – | – | 99.7 nM | 106 nM | 27 nM
COc1ccc2c(c1)[C@@H]1CN(CCn3c(=O)[nH]c4c(sc5ncccc54)c3=O)C[C@@H]1CO2 (racemic) [Example 78, 3-[2-((±)-cis-8-Methoxy-1,2,3,3a,4,9b-hexahydro-[1]-benzopyrano[3,4-c]pyrrol-2-yl)ethyl]-pyrido[3',2':4,5]thieno[3,2-d]pyrimidine-2,4(1H,3H)-dione hydrochloride] | – | – | – | – | 1.88 nM | 0.297 nM | 0.478 nM | 0.122 nM
COc1cc2[nH]c(=O)n(CCCCN3C[C@@H]4COc5cccc(OC)c5[C@@H]4C3)c(=O)c2cc1OC (racemic) [Example 79, 3-[4-((±)-cis-9-Methoxy-1,2,3,3a,4,9b-hexahydro-[1]-benzopyrano[3,4-c]pyrrol-2-yl)butyl]-6,7-dimethoxy-quinazoline-2,4(1H,3H)-dione hydrochloride] | – | – | – | – | 0.821 nM | 0.199 nM | 0.361 nM | 0.174 nM
